Measurements published in patent US12011444B2, “N-substituted indole derivatives as PGE2 receptor modulators” (Idorsia Pharmaceuticals Ltd, priority 2015, dated 2024).

Tests used:
PTGER2 (EP2) = PTGER2 (EP2) (Homo sapiens (Human), UniProt P43116); assay: hEP2 b-arrestin assay (PathHunter HEK 293 PTGER2 b-arrestin cells); type: cell-based
Description: (§1) The assay is using the PathHunter™ HEK 293 PTGER2 and PTGER4 b-arrestin cell lines from DiscoverX. The system is based on the Enzyme Fragment Complementation Technology. Two complementing fragments of the b-galactosidase enzyme are expressed within stably transfected cells. The larger portion of b-gal, termed EA for Enzyme Acceptor, is fused to the C-terminus of b-arrestin 2. The smaller fragment, termed ProLink™ tag, is fused to PTGER2 (EP2) or PTRGER4 (EP4) at the C-terminus. Upon activation, b-arrestin is recruited which forces the interaction of ProLink and EA, allowing complementation of the two fragments of b-gal and the formation of a functional enzyme which is capable of hydrolysing the substrate and generating a chemiluminescent signal.
(§2) 5000 cells per well of a 384 well plate (white with white bottom Greiner 781080) are seeded in 20 ul per well of GM. Plate is incubated at 37° C., 5% C02 for 24 hours.
Plate is pre-incubated 15 minutes at 37° C. Then five microliters of PGE2 (final conc. 5 μM) are transferred into the assay plate. Plate is incubated 120 minutes at 37° C.
(§3) Twelve μl of reagent are transferred to the assay plate and incubate for 1 hour at room temperature in the dark. Luminescence counts are read on a BMG Fluostar Optima reader according to manufacturer's instructions. For each compound concentration calculate of the percentage of activity compared to DMSO control value as average±STDEV. (each concentration is measured in duplicate)

PTRGER4 (EP4) = PTRGER4 (EP4) (Homo sapiens (Human), UniProt P35408); assay: hEP4 b-arrestin assay (PathHunter HEK 293 PTGER4 b-arrestin cells); type: cell-based
Description: as §1, §2
Plate is pre-incubated 15 minutes at 37° C. Then five microliters of PGE2 (final conc. 20 nM) are transferred into the assay plate. Plate is incubated 120 minutes at 37° C.
as §3, with “average±STDEV.” for “average±STDEV. (each concentration is measured in duplicate)”

[1] = antagonistic activity on hEP2, mean where measured multiple times
[2] = antagonistic activity on hEP4, mean where measured multiple times
[3] = hEP2 b-arrestin assay (values without asterisk)
[4] = hEP4 b-arrestin assay (values without asterisk)

Chain of PTGER2 (EP2) (P43116 whole entry, the tested form may be a part): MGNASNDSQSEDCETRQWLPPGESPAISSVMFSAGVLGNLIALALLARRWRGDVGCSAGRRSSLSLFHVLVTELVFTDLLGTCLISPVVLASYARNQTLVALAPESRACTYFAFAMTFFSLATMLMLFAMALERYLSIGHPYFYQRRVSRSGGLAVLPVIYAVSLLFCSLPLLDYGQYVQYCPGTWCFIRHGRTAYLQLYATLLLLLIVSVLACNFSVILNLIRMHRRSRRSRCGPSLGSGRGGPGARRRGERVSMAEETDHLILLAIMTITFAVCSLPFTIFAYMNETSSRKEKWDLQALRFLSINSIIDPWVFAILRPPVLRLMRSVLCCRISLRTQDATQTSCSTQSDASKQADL
Chain of PTRGER4 (EP4) (P35408 whole entry, looked up): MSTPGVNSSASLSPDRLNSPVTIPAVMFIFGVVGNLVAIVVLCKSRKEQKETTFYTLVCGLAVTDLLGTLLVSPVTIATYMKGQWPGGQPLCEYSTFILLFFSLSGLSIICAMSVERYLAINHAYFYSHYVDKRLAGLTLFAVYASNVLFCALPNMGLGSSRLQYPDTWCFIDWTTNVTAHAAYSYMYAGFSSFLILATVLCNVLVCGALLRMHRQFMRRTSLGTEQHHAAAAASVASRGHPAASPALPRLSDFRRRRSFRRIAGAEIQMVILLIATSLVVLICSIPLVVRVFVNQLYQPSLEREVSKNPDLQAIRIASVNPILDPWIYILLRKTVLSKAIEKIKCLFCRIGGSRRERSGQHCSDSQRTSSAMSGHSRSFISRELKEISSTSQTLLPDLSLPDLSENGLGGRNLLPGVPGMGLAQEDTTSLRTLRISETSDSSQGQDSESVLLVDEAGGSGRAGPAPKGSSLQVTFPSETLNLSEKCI

IC50 (PTGER2 (EP2); [1])	IC50 (PTRGER4 (EP4); [2])	IC50 (PTGER2 (EP2); [3])	IC50 (PTRGER4 (EP4); [4])	Structure (SMILES)
26 nM	317 nM	–	–	CCCc1cc(-c2cc(NCCn3c(C)cc4cc(C)cc(F)c43)ncn2)ccc1C(=O)O [compound 267]
–	–	7 nM	2 nM	CCOc1cc(-c2cc(NCCn3c(C#N)cc4c(OC)ccc(F)c43)ncn2)sc1C(=O)NS(=O)(=O)c1ccccc1 [Example 814, N-(5-{6-[2-(2-Cyano-7-fluoro-4-methoxy-indol-1-yl)-ethylamino]-pyrimidin-4-yl}-3-ethoxy-thiophene-2-carbonyl)-benzenesulfonamide]
–	–	14 nM	31 nM	COc1ccc(F)c2c1cc(C#N)n2CCNc1cc(-c2ccc3cc[nH]c3c2)ncn1 [Example 966, 7-Fluoro-1-{2-[6-(1H-indol-6-yl)-pyrimidin-4-ylamino]-ethyl)-4-methoxy-1H-indole-2-carbonitrile]
–	–	4 nM	15 nM	COc1ccc(F)c2c1cc(C#N)n2CCNc1cc(-c2cnc3[nH]ccc3c2)ncn1 [Example 979, 7-Fluoro-4-methoxy-1-{2-[6-(1H-pyrrolo[2,3-b]pyridin-5-yl)-pyrimidin-4-ylamino]-ethyl}-1H-indole-2-carbonitrile]
–	–	4 nM	32 nM	CCOc1cc(-c2cc(NCCn3c(C#N)c(F)c4ccccc43)ncn2)sc1C(=O)O [Example 876, 5-{6-[2-(2-Cyano-3-fluoro-indol-1-yl)-ethylamino]-pyrimidin-4-yl}-3-ethoxy-thiophene-2-carboxylic acid]
28 nM	603 nM	–	–	CCCSc1cc(-c2cc(NCCn3c(C)cc4c(C)ccc(Cl)c43)ncn2)ccc1C(=O)O [compound 334, 4-{6-[2-(7-Chloro-2,4-dimethyl-indol-1-yl)-ethylamino]-pyrimidin-4-yl}-2-propylsulfanyl-benzoic acid]
–	–	4 nM	29 nM	N#Cc1cc2c(Cl)cc(F)c(F)c2n1CCNc1cc(-c2cc(C(F)(F)F)c(C(=O)O)s2)ncn1 [Example 912, 5-{6-[2-(4-Chloro-2-cyano-6,7-difluoro-indol-1-yl)-ethylamino]pyrimidin-4-yl}-3-trifluoromethyl-thiophene-2-carboxylic acid]
30 nM	158 nM	–	–	Cc1cc(-c2cc(NCCn3c(C)cc4c(C)ccc(F)c43)ncn2)cc(Cl)c1C(=O)O [compound 123, 2-Chloro-4-{6-[2-(7-fluoro-2,4-dimethyl-indol-1-yl)-ethylamino]-pyrimidin-4-yl}-6-methyl-benzoic acid]
44 nM	334 nM	–	–	COc1cc(F)cc2c1cc(C)n2CCNc1cc(-c2ccc(-c3ccns3)cc2)ncn1 [compound 205, [2-(6-Fluoro-4-methoxy-2-methyl-indol-1-yl)-ethyl]-[6-(4-isothiazol-5-yl-phenyl)-pyrimidin-4-yl]-amine]
2 nM	556 nM	–	–	CNc1nnc(-c2ccc(-c3cc(NCCn4c(C)cc5ccccc54)ncn3)cc2)s1 [compound 387]
–	–	12 nM	22 nM	COc1ccc(F)c2c1cc(C#N)n2CCNc1cc(-c2ccc(-c3cc(O)no3)cc2)ncn1 [Example 852, 7-Fluoro-1-(2-{6-[4-(3-hydroxy-isoxazol-5-yl)-phenyl]-pyrimidin-4-ylamino}-ethyl)-4-methoxy-1H-indole-2-carbonitrile]
–	–	7 nM	49 nM	CCOc1cc(-c2cc(NCCn3c(C)cc4c(OC)ccc(F)c43)ncn2)sc1NC(N)=O [Example 1075, (3-Ethoxy-5-{6-[2-(7-fluoro-4-methoxy-2-methyl-indol-1-yl)-ethylamino]-pyrimidin-4-yl}-thiophen-2-yl)-urea]
–	–	22 nM	4 nM	Cc1ccc(F)c2c1cc(C#N)n2CCNc1cc(-c2cc(C(F)(F)F)c(C(=O)O)s2)ncn1 [Example 858, 5-{6-[2-(2-Cyano-7-fluoro-4-methyl-indol-1-yl)-ethylamino]-pyrimidin-4-yl}-3-trifluoromethyl-thiophene-2-carboxylic acid]
63 nM	570 nM	–	–	Cc1ccc(F)c2c1cc(C)n2CCNc1cc(-c2ccc3nccnc3c2)ncn1 [compound 55, [2-(7-Fluoro-2,4-dimethyl-indol-1-yl)-ethyl]-(6-quinoxalin-6-yl-pyrimidin-4-yl)-amine]
–	–	21 nM	59 nM	COc1ccc(F)c2c1cc(C)n2CCNc1cc(-c2cc(O)c(C(=O)O)s2)ncn1 [Example 799, 5-{6-[2-(7-Fluoro-4-methoxy-2-methyl-indol-1-yl)-ethylamino]-pyrimidin-4-yl}-3-hydroxy-thiophene-2-carboxylic acid]

Further lines, the molecule ahead of its results:

Structure (SMILES)	IC50 (PTGER2 (EP2); [1])	IC50 (PTRGER4 (EP4); [2])	IC50 (PTGER2 (EP2); [3])	IC50 (PTRGER4 (EP4); [4])
CCOc1cc(-c2cc(NCCn3c(C#N)cc4c(OC)ccc(F)c43)ncn2)ccc1O [Example 899, 1-{2-[6-(3-Ethoxy-4-hydroxy-phenyl)-pyrimidin-4-ylamino]-ethyl)-7-fluoro-4-methoxy-1H-indole-2-carbonitrile]	–	–	5 nM	16 nM
COc1cccc2c1cc(C)n2CCNc1cc(-c2ccc(NC(N)=O)cc2)ncn1 [compound 39, (4-{6-[2-(4-Methoxy-2-methyl-indol-1-yl)-ethylamino]-pyrimidin-4-yl}-phenyl)-urea]	19 nM	515 nM	–	–
CCOc1cc(-c2cc(NCCn3c(C#N)cc4c(OC)ccc(F)c43)ncn2)sc1C(=O)NC [Example 1023, 5-{6-[2-(2-Cyano-7-fluoro-4-methoxy-indol-1-yl)-ethylamino]-pyrimidin-4-yl}-3-ethoxy-thiophene-2-carboxylic acid methylamide]	–	–	8 nM	1 nM
COc1ccc(F)c2c1cc(C)n2CCNc1cc(-c2ccc(N3CCCC3=O)cc2)ncn1 [compound 318]	338 nM	894 nM	–	–
COc1ccc(Cl)c2c1cc(C)n2CCNc1cc(-c2cc(C)c(C(=O)O)c(C)c2)ncn1 [compound 287]	183 nM	963 nM	–	–
Cc1cccc2c1cc(C)n2CCNc1cc(-c2ccc(C(=O)O)c(CCC(C)C)c2)ncn1 [compound 329, 4-{6-[2-(2,4-Dimethyl-indol-1-yl)-ethylamino]-pyrimidin-4-yl}-2-(3-methyl-butyl)-benzoic acid]	27 nM	653 nM	–	–
COc1cccc2c1cc(C)n2CCNc1cc(-c2ccc(-c3noc(=O)[nH]3)cc2)ncn1 [compound 194, 3-(4-{6-[2-(4-Methoxy-2-methyl-indol-1-yl)-ethylamino]-pyrimidin-4-yl}-phenyl)-4H-[1,2,4]oxadiazol-5-one]	10 nM	172 nM	–	–
CCOc1cc(-c2cc(NCCn3c(C)cc4c(C)cc(F)c(F)c43)ncn2)sc1C(=O)O [compound 294]	8 nM	10 nM	–	–
Cc1cc(F)cc2c1cc(C)n2CCNc1cc(-c2ccc(-c3ccon3)cc2)ncn1 [compound 94, [2-(6-Fluoro-2,4-dimethyl-indol-1-yl)-ethyl]-[6-(4-isoxazol-3-yl-phenyl)-pyrimidin-4-yl]-amine]	30 nM	299 nM	–	–
COc1cc(-c2cc(NCCn3c(C#N)cc4c(OC)ccc(F)c43)ncn2)ccn1 [Example 898, 7-Fluoro-4-methoxy-1-{2-[6-(2-methoxy-pyridin-4-yl)-pyrimidin-4-ylamino]-ethyl}-1H-indole-2-carbonitrile]	–	–	41 nM	123 nM
COc1ccc(F)c2c1cc(C)n2CCNc1cc(-c2ccc(-c3csc(C)n3)cc2)ncn1 [compound 321]	72 nM	439 nM	–	–
COc1ccc(Cl)c2c1cc(C)n2CCNc1cc(-c2cc(C)c(C(=O)O)c(Cl)c2)ncn1 [compound 155]	55 nM	251 nM	–	–
COc1ccc(F)c2c1cc(C)n2CCNc1cc(-c2ccc(CO)c(Cl)c2)ncn1 [compound 27, (2-Chloro-4-{6-[2-(7-fluoro-4-methoxy-2-methyl-indol-1-yl)-ethylamino]-pyrimidin-4-yl}-phenyl)-methanol]	10 nM	90 nM	–	–
CCOc1cc(-c2cc(NCCn3c(C)cc4c(OC)ccc(F)c43)ncn2)sc1CCC(=O)O [Example 1015, 3-(3-Ethoxy-5-{6-[2-(7-fluoro-4-methoxy-2-methyl-indol-1-yl)-ethylamino]-pyrimidin-4-yl}-thiophen-2-yl)-propionic acid]	–	–	15 nM	18 nM
CCOc1cc(-c2cc(NCCn3c(C)cc4c(C)cc(F)cc43)ncn2)ccc1C(=O)O [compound 282]	11 nM	294 nM	–	–
COc1ccc(F)c2c1cc(C)n2CCNc1cc(-c2cc(C)c(C(=O)O)c(F)c2)ncn1 [compound 277]	17 nM	416 nM	–	–
COc1ccc(F)c2c1cc(C#N)n2CCNc1cc(-c2cc3ccccc3[nH]2)ncn1 [Example 961, 7-Fluoro-1-{2-[6-(1H-indol-2-yl)-pyrimidin-4-ylamino]-ethyl}-4-methoxy-1H-indole-2-carbonitrile]	–	–	12 nM	34 nM
